Assay results reported in paper PMC3777193, “Diaryl- and triaryl-pyrrole derivatives: inhibitors of the MDM2–p53 and MDMX–p53 protein–protein interactions” (Medchemcomm, 2013).
Like-named read-outs stand apart in the source and are kept apart here.

How the values were obtained:
MDM2–p53 = MDM2–p53 (Homo sapiens, UniProt Q00987); test: MDM2–p53 ELISA protein–protein binding assay
MDMX–p53 = molecular target: T1, MDMX–p53 (Homo sapiens, UniProt O15151); test: MDMX–p53 ELISA binding assay
T1 construct: host or cells: in vitro coupled T7 transcription and rabbit reticulocyte lysate translation
T1 sequence (O15151 1-490): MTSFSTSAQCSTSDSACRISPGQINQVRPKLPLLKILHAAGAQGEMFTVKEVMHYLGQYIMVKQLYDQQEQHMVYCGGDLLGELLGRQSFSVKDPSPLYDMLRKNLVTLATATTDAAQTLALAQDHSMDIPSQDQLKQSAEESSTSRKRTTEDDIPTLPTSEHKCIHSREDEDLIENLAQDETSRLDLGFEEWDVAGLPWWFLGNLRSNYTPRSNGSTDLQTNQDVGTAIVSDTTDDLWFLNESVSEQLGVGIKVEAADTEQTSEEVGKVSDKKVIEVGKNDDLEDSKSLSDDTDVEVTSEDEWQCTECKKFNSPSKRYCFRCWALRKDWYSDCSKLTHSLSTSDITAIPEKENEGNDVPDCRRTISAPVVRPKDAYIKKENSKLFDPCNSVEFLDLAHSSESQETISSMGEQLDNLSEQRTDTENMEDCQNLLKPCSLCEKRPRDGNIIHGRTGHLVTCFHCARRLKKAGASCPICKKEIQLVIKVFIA

SJSA-1 = test: Growth inhibitory activity, SJSA-1; conditions: Homo sapiens, SJSA-1, read-out: GI50 SJSA-1
Procedure: (§2) Growth inhibitory activity was determined for selected pyrroles in a panel of cell lines with defined MDM2, MDMX and p53 status (Table 5).

SN40R2 = test: Growth inhibitory activity, SN40R2; conditions: read-out: GI50 SN40R2
Procedure: as §2

MRK-NU-1 = test: Growth inhibitory activity, MRK-NU-1; conditions: Homo sapiens, MRK-nu-1, read-out: GI50 MRK-NU-1
Procedure: as §2

SJSA-1 cells = format: cell-based; conditions: SJSA-1 (MDM2 amplified, p53wt), 5 μM, 4 h
A2780 cells = format: cell-based; conditions: A2780 (p53wt), 0.1, 0.2 and 5 μM, 4 h
A2780CP70 cells = format: cell-based; conditions: A2780 CP70 (p53 mutant), 0.1, 0.2 and 5 μM, 4 h
[1] = Growth inhibitory activity, A2708 (Table S3); format: cell-based; conditions: read-out: GI50 A2708
Text: (§1) (2 pictures or pasted objects on this page, not shown here)

A2780-CP70 = test: Growth inhibitory activity, A2780-CP70 (Table S3); format: cell-based; conditions: A2780/CP70, read-out: GI50 A2780-CP70
Text: as §1

HCT116 = test: Growth inhibitory activity, HCT116 (Table S3); format: cell-based; conditions: Homo sapiens, HCT-116, read-out: GI50 HCT116
Text: as §1

HCT116 p53(-/-) = test: Growth inhibitory activity, HCT116 p53(-/-) (Table S3); format: cell-based; conditions: Homo sapiens, HCT-116, read-out: GI50 HCT116 p53(-/-)
Text: as §1

[2] = Table 3, n = 3 (b n = 5), read-out: MDM2 IC50

MDM2–p53, sequence (Q00987 whole entry): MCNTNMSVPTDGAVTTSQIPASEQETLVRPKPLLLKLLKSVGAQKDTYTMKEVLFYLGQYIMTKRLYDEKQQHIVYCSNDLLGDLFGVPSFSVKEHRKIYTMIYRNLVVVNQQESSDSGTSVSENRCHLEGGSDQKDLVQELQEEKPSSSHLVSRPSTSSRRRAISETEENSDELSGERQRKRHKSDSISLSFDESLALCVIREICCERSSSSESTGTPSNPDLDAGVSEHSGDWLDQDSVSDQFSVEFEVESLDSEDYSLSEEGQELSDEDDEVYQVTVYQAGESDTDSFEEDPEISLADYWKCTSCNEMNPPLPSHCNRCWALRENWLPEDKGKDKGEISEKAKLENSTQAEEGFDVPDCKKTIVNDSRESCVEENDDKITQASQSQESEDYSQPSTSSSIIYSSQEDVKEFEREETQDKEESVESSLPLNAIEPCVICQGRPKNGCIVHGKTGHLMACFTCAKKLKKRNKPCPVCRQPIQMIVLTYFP

Work on CC(C)(C)c1ccc(-n2c(-c3ccccc3)cc(C=C3C(=O)NC(=O)NC3=O)c2-c2ccccc2)cc1 [Compound 4p] yielded an IC50 (MDM2–p53; read-out: MDM2 IC50) of 1.9 ± 0.3 µM.
With CN1C(=O)C(=Cc2cc(-c3ccccc3)n(-c3ccc(Cl)cc3)c2-c2ccccc2)C(=O)NC1=S [Compound 4x] the IC50 (MDM2–p53) was 0.11 ± 0.02 µM, the IC50 (MDMX–p53) was 28 ± 23 µM and the GI50 (SJSA-1) was 5.5 ± 0.6 µM. For the same compound, the GI50 (SN40R2) was 6.3 ± 0.4 µM and the GI50 (MRK-NU-1) was 7 ± 1 µM.
In the case of CCN1C(=O)C(=Cc2cc(-c3ccccc3)n(-c3ccc(Br)cc3)c2-c2ccccc2)C(=O)N(CC)C1=O [Compound 4v], the “fold less potent against MDM2 compared with unsubstituted analogues” value (MDM2–p53) is reported as 3–4 fold, the IC50 (MDM2–p53; read-out: MDM2 IC50) is reported as 0.89 ± 0.04 µM and the inhibition at 50 µM (MDMX–p53; read-out: MDMX % inhibition at 50 μM) is reported as 74%.
In the case of CC(C)(C)c1cc(C=C2C(=O)NC(=S)NC2=O)c(-c2ccccc2)n1-c1ccc(Cl)cc1 [Compound 11c], the IC50 (MDM2–p53; read-out: MDM2 IC50) is reported as 1.1 ± 0.7 µM, the “fold loss of potency for MDMX” value (MDMX–p53) is reported as greater than 200 fold and the IC50 (MDMX–p53; read-out: MDMX IC50) is reported as 1680 µM.
Compound O=C1NC(=S)NC(=O)C1=Cc1cc(-c2ccccc2)n(-c2ccc([N+](=O)[O-])cc2)c1-c1ccccc1 [Compound 4t] has an IC50 (MDM2–p53; read-out: MDM2 IC50) of 0.17 ± 0.09 µM, an IC50 (MDMX–p53; read-out: MDMX IC50) of 0.63 ± 0.12 µM and a GI50 (SJSA-1) of 4.7 ± 1 µM. It also gave a GI50 (SN40R2) of 5.2 ± 0.4 µM and a GI50 (MRK-NU-1) of 4.9 ± 0.6 µM.
Compound COc1ccc(-n2c(-c3ccccc3)cc(C=C3C(=O)NC(=O)NC3=O)c2-c2ccccc2)cc1 [Compound 4o] has an IC50 (MDM2–p53; read-out: MDM2 IC50) of 1.9 ± 0.3 µM and an IC50 (MDMX–p53; read-out: MDMX IC50) of 13 ± 7 µM.
O=C1NC(=S)N(c2cccc(Cl)c2)C(=O)/C1=C/c1cc(-c2ccccc2)n(-c2ccc(Cl)cc2)c1-c1ccccc1 [Compound 4e] gave an IC50 (MDM2–p53; read-out: MDM2 IC50) of 0.163 ± 0.017 µM.
CN1C(=O)NC(=O)C(=Cc2cc(-c3ccccc3)n(-c3ccc(Br)cc3)c2-c2ccccc2)C1=O [Compound 4y] showed an IC50 (MDM2–p53) of 0.34 ± 0.08 µM and an IC50 (MDMX–p53) of 35 ± 20 µM.
Compound O=C1NC(=S)NC(=O)C1=Cc1cc(C2CC2)n(-c2ccc(Br)cc2)c1-c1ccccc1 [Compound 11g] has an IC50 (MDM2–p53; read-out: MDM2 IC50) of 2.2 ± 2.7 µM and an IC50 (MDMX–p53; read-out: MDMX IC50) of 5320 µM.
For CC1(C)OC(=O)C(Cc2cc(-c3ccccc3)n(-c3ccc(Br)cc3)c2-c2ccccc2)C(=O)O1 [Compound 9], the “fold less potent than 8c against MDM2–p53” value (MDM2–p53) was 20 fold and the IC50 (MDM2–p53; [2]) was 2.9 ± 0.7 µM.
CN1C(=O)C(=Cc2cc(-c3ccccc3)n(-c3ccc(Br)cc3)c2-c2ccccc2)C(=O)NC1=S [Compound 4z] showed an IC50 (MDM2–p53) of 0.073 ± 0.002 µM.
For O=C1NC(=S)N(c2ccccc2)C(=O)/C1=C/c1cc(-c2ccccc2)n(-c2ccc(Cl)cc2)c1-c1ccccc1 [Compound 4d], the “fold more potent than the comparable 2,5-dimethyl analogues (4a, 4b)” value (MDM2–p53) was 5–10 fold, the IC50 (MDM2–p53; read-out: MDM2 IC50) was 0.23 ± 0.044 µM and the “induction of MDM2, p53, and p21 (Western blot)” value (SJSA-1 cells) was “clearly visible”. For the same compound, the “induction of MDM2 and p21 (Western blot)” value (A2780 cells) was “observed” and the “induction of MDM2, p53, and p21 (Western blot)” value (A2780CP70 cells) was “no induction”.
For O=C1NC(=S)NC(=O)C1=Cc1cc(-c2ccccc2)n(-c2ccc(Cl)cc2)c1C1CC1 [Compound 11d], the IC50 (MDM2–p53; read-out: MDM2 IC50) was 1.6 ± 1.7 µM and the IC50 (MDMX–p53; read-out: MDMX IC50) was 3490 µM.
Work on Cc1cc(C=C2C(=O)NC(=S)NC2=O)c(C)n1-c1ccc(Cl)cc1 [Compound 4a] yielded an IC50 (MDM2–p53; read-out: MDM2 IC50) of 0.72 ± 0.1 µM, a GI50 [1] of 3.4 ± 0.2 µM and a GI50 (A2780-CP70) of 4.4 ± 0.2 µM. The GI50 (HCT116) was 8.4 ± 0.5 µM, the GI50 (HCT116 p53(-/-)) was 8.3 ± 0.4 µM and the GI50 (SJSA-1) was 3.3 ± 0.1 µM.
With O=C1NC(=S)NC(=O)C1=Cc1cc(-c2ccccc2)n(-c2ccc(Br)cc2)c1C1CC1 [Compound 11e] the IC50 (MDM2–p53; read-out: MDM2 IC50) was 1.6 ± 1.6 µM and the IC50 (MDMX–p53; read-out: MDMX IC50) was 3430 µM.
CCOC(=O)c1ccc(-n2c(-c3ccccc3)cc(C=C3C(=O)NC(=S)NC3=O)c2-c2ccccc2)cc1 [Compound 4k] gave an IC50 (MDM2–p53; read-out: MDM2 IC50) of 0.7 ± 0.02 µM.
For O=C(O)/C=C/c1cc(-c2ccccc2)n(-c2ccc(Cl)cc2)c1-c1ccccc1 [Compound 10f], the “activity against MDM2–p53 in words” value (MDM2–p53) was “only weakly active”, the IC50 (MDM2–p53; [2]) was 17 ± 3 µM and the “activity against MDMX–p53 in words” value (MDMX–p53) was “inactive”. The IC50 (MDMX–p53; Table 3, n = 3 (c n = 1), read-out: MDMX IC50) was greater than 50 µM.
Work on O=C1NC(=O)C(=Cc2cc(-c3ccccc3)n(-c3ccc(Br)cc3)c2-c2ccccc2)C(=O)N1 [Compound 4n] yielded an IC50 (MDM2–p53; read-out: MDM2 IC50) of 0.18 ± 0.07 µM.
In the case of CN1C(=O)C(=Cc2cc(-c3ccccc3)n(-c3ccc(Cl)cc3)c2-c2ccccc2)C(=O)N(C)C1=S [Compound 4g], the “MDM2-p53 IC50” value (MDM2–p53) is reported as “Insol” and the “MDM2 IC50” value (MDM2–p53) is reported as “Insol”.
